Results reported in US9283279B2, “Targeted polymeric conjugates and uses thereof” (priority 2011, dated 2016).

Assays:
[1] = test system: PC3 human prostate adenocarcinoma cells; test: PC3 cell viability / proliferation assay (MTT); assay type: cell-based; settings: PC-3, 72 hours incubation
Experimental: PC3 cells were plated onto 96 well plate (5×10^3 cells/well) in DMEM supplemented with 5% FBS and incubated for 24 h (37° C.; 5% CO2). […] Following incubation, PC3 cells were counted by MTT.

[2] = Pharmacokinetic studies in mice; assay type: in vivo, female Balb/C mice
Experimental: The mice were randomly divided in three groups of 10 animals. […] To 50 μL of plasma, 350 μL of CH3CN was added for protein precipitation and the resulting mixture was centrifuged at 20,000 g for 5 minutes. A 300 μL aliquot of the supernatant was collected and freeze-dried. The residue was dissolved in 50 μL of CH3OH and analyzed by RP-HPLC under the condition reported hereinabove.

[3] = test system: 4T1-mCherry murine mammary adenocarcinoma in the tibia; assay type: in vivo, Balb/c female mice; settings: 4T1-mCherry tumors in the tibia
[4] = test system: 4T1-mCherry tumors in the tibia; test: Microvessel density (CD34 staining), 4T1-mCherry model; assay type: in vivo, Balb/c female mice; settings: compared to saline-treated control group
Experimental: Immunohistochemistry of tumors in the tibia was performed using samples fixed with 4% paraformaldehyde, following decalcification in EDTA and paraffin embedding by the standard procedure. Paraffin sections of 4 μm were de-paraffinized, rehydrated, and stained by hematoxylin and eosin (H&E). For CD34 staining, slides were deparaffinized and pre-treated with 10 mM citrate buffer, pH=6.0, for 20 minutes in a steam pressure cooker (Decloaking Chamber, BioCare Medical, Walnut Creek, Calif.).
All further steps were performed at room temperature in a hydrated chamber. Slides were covered with Peroxidase Block (Merck, Germany) for 10 minutes to quench endogenous peroxidase activity, followed by incubation with 2% of horse serum in 50 mM Tris-HCl, pH 7.4, for 30 minutes to block non-specific binding sites. Primary rat anti-murine CD34 antibody (MEC 14.7 1:50 dilution; Abcam, Cambridge, Mass.) was applied in 1% rabbit serum albumin in Tris-HCl, pH 7.4 at 4° overnight. Slides were washed in 50 mM TrisHCl, pH 7.4 and rabbit anti-rat antibody (1:750 dilution; Vector Laboratories, Calif., USA) was applied for 30 minutes. Following further washing, immunoperoxidase staining was developed using HistoMark TrueBlue peroxidase system (KPL, USA) per the manufacturer instructions and counterstained with safranin.

[5] = blood samples on day 11; 15 mg/kg PTX or equivalent
Experimental: Samples were counted no longer than five minutes after blood was drawn from mice. Ten μl of blood samples were mixed with 90 μl of track solution (1% acetic acid in DDW), and cells were counted by a Z1 Coulter® Particle Counter (Beckman Coulter™). Data is expressed as mean±s.e.m.

[6] = test system: circulating endothelial cells (CEC) and circulating endothelial progenitor (CEP); settings: day 11 of treatment
[7] = female, mouse, plasma, iv, i.v. 10 mg/Kg PTX equiv., Balb/C mice

Structure (SMILES): CC(=O)O[C@H]1C(=O)[C@@]2(C)[C@H]([C@H](OC(=O)c3ccccc3)[C@]3(O)C[C@H](OC(=O)[C@H](O)[C@@H](NC(=O)c4ccccc4)c4ccccc4)C(C)=C1C3(C)C)[C@]1(OC(C)=O)CO[C@@H]1C[C@@H]2O [PTX, Paclitaxel]
- IC50 [1]: 25 to 60 nM
- Vd [2, 7]: 0.161 ± 0.0021 L
- clearance [2, 7]: 7.4 ± 1.5 mL/min
- half-life ([2]; female, mouse, plasma, iv, i.v. 10 mg/Kg PTX equiv., Balb/C mice, read-out: T1/2β (elimination half-life)): 15.1 min
- T1/2α ([2]; i.v. 10 mg/Kg PTX equiv., Balb/C mice): 1.3 ± 0.3
- time at which PTX was not detectable ([2]; serum PTX by RP-HPLC, i.v. 10 mg/Kg): 60 min
- H&E histology of the tibia [3]: tumor filled the bone marrow space and destroyed both trabecular and cortical bone
- reduction in micro-vessel density (MVD) [4]: about 50%
- WBC counts [5]: significant decrease
- viable CEP levels [6]: increase
